{"source": "paper PMC8997913", "about": "“Lichen Secondary Metabolites Inhibit the Wnt/β-Catenin Pathway in Glioblastoma Cells and Improve the Anticancer Effects of Temozolomide” (Cells, 2022)", "key": {"[1]": {"tested_on": "A-172 cells", "experiment": "MTT test, A-172", "format": "cell-based, human", "conditions": "for number of living cells: A-172, 1–100 µM; for IC50: A 172, 48 h, three independent experiments, read-out: IC50 [uM] ± SEM A-172", "method": "(§1) Three human GBM cell lines were used in this study, i.e., A-172 (ATCC-CRL-1620), T98G (92090213), and U-138 MG (ATCC-HTB-16). The A-172 and U-138 MG cell lines were purchased from the American Type Culture Collection (ATCC), whereas the T98G cell line was obtained from the European Collection of Authenticated Cell Cultures (ECACC). It has been confirmed by us that O^6-methylguanine-DNA methyltransferase (MGMT), the key factor determining the response to alkylating agents, such as TMZ, is expressed in T98G and U-138 MG cells, whereas in A-172 the expression of MGMT is silenced by promoter methylation. Therefore, the cell lines differ in terms of TMZ sensitivity; A-172 is regarded as TMZ sensitive, whereas T98G and U-138 MG are TMZ resistant.\n(§2) The cells were grown as monolayers (2D cell culture) in the recommended media: A-172 were grown in the ATCC-formulated DMEM (Merck, Darmstadt, Germany), whereas T98G and U-138 MG cell lines were grown in the ATCC-formulated EMEM (Merck, Darmstadt, Germany). These media were supplemented with FBS (Biowest, Nuaillé, France) to a final concentration of 10%, as well as antibiotics (penicillin and streptomycin) (Merck, Darmstadt, Germany) to the final concentrations of 1%. For the experiments, the amount of FBS was reduced to 5%. The medium for the T98G cell line was supplemented with 2 mM glutamine, 1% nonessential amino acids, and 1% sodium pyruvate (all purchased from Merck, Darmstadt, Germany).\n(§3) In order to analyze the cytotoxicity of the analyzed lichen secondary metabolites, as well as to establish the appropriate concentrations for further analysis (allowing the survival of >70% of cells), we performed the MTT test. The procedure of the test was described previously. Briefly, the cells (10,000 cells per well) were seeded on the 96-well plates and left for 24 h. Afterwards, the analyzed compounds in the concentration range of 1 µM up to 100 µM were added to the cells and left for 48 h incubation. DMSO treated cells served as control. After the above-mentioned time, the cells were washed twice with warm PBS and incubated for 3 h in the presence of a fresh medium containing MTT salt (0.5 mg/mL). Then the formazan crystals were dissolved in acidic isopropanol. The absorbance was measured at 570 and 690 nm on a Tecan Infinite M200 microplate reader (Grödig, Austria). The experiments were repeated at least three times."}, "[2]": {"tested_on": "Wnt/β-catenin pathway target genes in U-138 MG cells", "experiment": "qPCR of β-catenin and Wnt target genes, U-138 MG", "format": "cell-based, human", "conditions": "48 h; for expression of the Wnt target genes: co-treatment with TMZ 100 µM", "method": "(§4) Based on the MTT test, the lichen secondary metabolite concentrations allowing the survival of more than 70% of cells were chosen for the subsequent experiments. The compounds were added as follows: A-172 cells—atranorin 25 µM, caperatic acid 50 µM, physodic acid 25 µM, squamatic acid 25 µM, salazinic acid 50 µM, and lecanoric acid 100 µM; T98G cells—atranorin 50 µM, caperatic acid 100 µM, physodic acid 25 µM, squamatic acid 50 µM, salazinic acid 100 µM, and lecanoric acid 100 µM; U-138 MG cells—atranorin 25 µM, caperatic acid 50 µM, physodic acid 25 µM, squamatic acid 50 µM, salazinic acid 50 µM, and lecanoric acid 100 µM. As far as the TMZ treatment is concerned, it was added in the concentrations depending on the MGMT expression and methylation status, i.e., TMZ 30 µM was added to the A-172 cell line, and TMZ 100 µM was added to both the T98G and U-138 MG cell lines. In the case of the 2D culture, the cells were treated with the compounds 24 h after seeding, whereas, in regard to 3D culture, 5 days were needed to form spheroids. All subsequent analyses were performed 48 h after treatment.\n(§5) The Universal RNA Purification Kit (EURx, Gdańsk, Poland) was used for total RNA isolation from the A-172, T98G, and U-138 MG cells, and the Revert-Aid First Strand cDNA Synthesis kit (Fermentas, Burlington, ON, Canada) was chosen for cDNA synthesis. Quantitative real-time PCR (qPCR) was performed using Hot FIREPol EvaGreen qPCR Mix Plus (Solis Biodyne, Tartu, Estonia) and LightCycler 96 (Roche Diagnostics GmbH, Mannheim, Germany). Primer sequences were previously published and their synthesis was performed at the Institute of Biochemistry and Biophysics, Warsaw, Poland. The protocol started with 15 min enzyme activation at 95 °C, followed by 40 cycles of 95 °C for 15 s; appropriate annealing temperature for 20 s; 72 °C for 40 s and the final elongation at 72 °C for 5 min. Melting curve analysis was used to confirm the generation of a single amplification product. TATA box-binding protein (TBP), a component of the DNA-binding protein complex TFIID, served as the endogenous RNA control. The results were expressed as N-fold differences in the gene expression relative to the TBP gene. The ΔΔCt method was used for fold-change calculation. All samples were analyzed in triplicate, and the reaction was repeated at least twice."}, "[3]": {"tested_on": "T98G cells", "experiment": "MTT test, T98G", "format": "cell-based", "conditions": "Homo sapiens, 48 h, three independent experiments, read-out: IC50 [uM] ± SEM T98G", "method": "as §1, §2, §3"}, "[4]": {"tested_on": "U-138 MG cells", "experiment": "Apoptosis, caspase-3/7 and 7-AAD flow cytometry, U-138 MG", "format": "cell-based, human", "conditions": "48 h", "method": "as §4\nThe fluorescent-based analysis of apoptosis using Muse® Caspase-3/7 Kit was performed in order to analyze the percentage of live, early, and late apoptotic; total apoptotic; and dead cells in A-172, T98G, and U-138 MG GBM cells treated with lichen secondary metabolites. The principle of the method relies on the measurement of the activity of executioner caspases, i.e., caspase-3 and caspase-7, as well as analyzing the integrity of the cell membrane with the use of a dead cell marker 7-AAD. Cell seeding and treatment followed the same protocol as for cell cycle or ROS generation analysis, while the subsequent procedures were performed according to the manufacturer’s recommendations."}, "[5]": {"tested_on": "Wnt/β-catenin pathway target genes in T98G cells", "experiment": "qPCR of β-catenin and Wnt target genes, T98G", "format": "cell-based, human", "conditions": "48 h", "method": "as §4, §5"}, "[6]": {"conditions": "mRNA vs DMSO control, single agent"}, "[7]": {"conditions": "mRNA vs DMSO control, single agent, TMZ 100 µM"}}}
{"smiles": "COC(=O)c1c(C)cc(OC(=O)c2c(C)cc(O)c(C=O)c2O)c(C)c1O", "note": "[Atranorin]", "values": [{"measurement": "number of living cells", "setting": "[1]; 48 h", "value": "reduced the number of living cells in the whole analyzed concentration range"}, {"measurement": "IC50", "setting": "[1]; Homo sapiens", "value": "90.9 ± 3.7", "unit": "µM"}, {"measurement": "Axin2 expression", "setting": "[2]; [6]", "value": "downregulated"}, {"measurement": "IC50", "setting": "[3]", "value": "98.6 ± 7.8", "unit": "µM"}, {"measurement": "effect on apoptosis", "setting": "[4]", "value": "anti-apoptotic effect"}, {"measurement": "c-MYC expression", "setting": "[5]; [6]", "value": "trend towards downregulation, but with no statistical significance"}]}
{"smiles": "CCCCCCCCCCCCCCC(C(=O)O)C(O)(CC(=O)OC)C(=O)O", "note": "(centres unmarked) [Caperatic acid]", "values": [{"measurement": "IC50", "setting": "[1]; Homo sapiens", "value": "80.1 ± 1.88", "unit": "µM"}, {"measurement": "viability at 100 µM", "setting": "[1]; Homo sapiens, A-172, highest tested concentration (100 µM), 48 h", "value": "11.7 ± 5.51", "unit": "%"}, {"measurement": "expression of the Wnt target genes", "setting": "[2]", "value": "huge downregulatory effect"}, {"measurement": "Axin2 expression", "setting": "[2]; [6]", "value": "downregulated"}, {"measurement": "NEDD9 expression", "setting": "[2]; [7]", "value": "downregulated"}, {"measurement": "IC50", "setting": "[3]", "value": "> 100", "unit": "µM"}, {"measurement": "effect on apoptosis", "setting": "[4]", "value": "anti-apoptotic effect"}, {"measurement": "NEDD9 expression", "setting": "[5]; [6]", "value": "downregulated"}]}
{"smiles": "Cc1cc(OC(=O)c2c(C)cc(O)cc2O)cc(O)c1C(=O)O", "note": "[Lecanoric acid]", "values": [{"measurement": "cells killed", "setting": "[1]; A-172, 100 µM, 48 h", "value": "~ 30%"}, {"measurement": "IC50", "setting": "[1]; Homo sapiens", "value": "> 100", "unit": "µM"}, {"measurement": "IC50", "setting": "[3]", "value": "> 100", "unit": "µM"}, {"measurement": "number of late apoptotic cells vs control", "setting": "[4]; 100 µM", "value": "increased"}, {"measurement": "percentage of early apoptotic cells vs control", "setting": "[4]; 100 µM", "value": "decreased"}, {"measurement": "Axin2 expression", "setting": "[5]; co-treatment with TMZ 100 µM", "value": "downregulated"}, {"measurement": "CCND1 expression", "setting": "[5]; co-treatment with TMZ 100 µM", "value": "downregulated"}, {"measurement": "c-MYC expression", "setting": "[5]; co-treatment with TMZ 100 µM", "value": "downregulated"}, {"measurement": "β-catenin (CTNNB1) expression", "setting": "[5]; co-treatment with TMZ 100 µM", "value": "downregulated"}]}
{"smiles": "Cc1cc(O)c(C=O)c2c1C(=O)Oc1c(CO)c(O)c3c(c1O2)C(O)OC3=O", "note": "(centres unmarked) [Salazinic acid]", "values": [{"measurement": "expression of the Wnt target genes", "setting": "[2]", "value": "huge downregulatory effect"}, {"measurement": "BIRC5 expression", "setting": "[2]; [6]", "value": "diminished"}, {"measurement": "CCND1 expression", "setting": "[2]; [6]", "value": "downregulated CCND1 expression by around half"}, {"measurement": "Axin2 expression", "setting": "[5]; co-treatment with TMZ 100 µM", "value": "trend toward downregulation"}, {"measurement": "number of the six analyzed genes downregulated", "setting": "[5]; co-treatment with TMZ 100 µM", "value": "five out of six"}, {"measurement": "CCND1 expression", "setting": "[5]; [6]", "value": "significantly upregulated"}, {"measurement": "c-MYC expression", "setting": "[5]; [6]", "value": "upregulated"}, {"measurement": "BIRC5 expression", "setting": "[5]; [7]", "value": "downregulated"}]}
{"smiles": "COc1cc(C)c(C(=O)Oc2cc(C)c(C(=O)O)c(O)c2C)c(O)c1C(=O)O", "note": "[Squamatic acid]", "values": [{"measurement": "number of living cells", "setting": "[1]; 48 h", "value": "reduced the number of living cells in the whole analyzed concentration range"}, {"measurement": "IC50", "setting": "[1]; Homo sapiens", "value": "84.9 ± 3.62", "unit": "µM"}, {"measurement": "Axin2 expression", "setting": "[2]; [6]", "value": "downregulated"}, {"measurement": "IC50", "setting": "[3]", "value": "> 100", "unit": "µM"}, {"measurement": "CCND1 expression", "setting": "[5]; co-treatment with TMZ 100 µM", "value": "downregulated"}, {"measurement": "NEDD9 expression", "setting": "[5]; co-treatment with TMZ 100 µM", "value": "downregulated"}, {"measurement": "c-MYC expression", "setting": "[5]; co-treatment with TMZ 100 µM", "value": "downregulated"}, {"measurement": "β-catenin (CTNNB1) expression", "setting": "[5]; co-treatment with TMZ 100 µM", "value": "downregulated"}, {"measurement": "NEDD9 expression", "setting": "[5]; [6]", "value": "downregulation"}, {"measurement": "c-MYC expression", "setting": "[5]; [6]", "value": "trend towards downregulation, but with no statistical significance"}]}
